What was measured:
HIV-1(IIIB) [1] = assay: microbe, parasite or virus in culture; format: cell-based; settings: for EC50: Human immunodeficiency virus 1, IIIB, CCRF-CEM
Protocol: (§1) To study the antiviral activity in transformed cells, CEM cells were suspended in fresh culture medium and infected with HIV-1(IIIB) or HIV-2(ROD) at 100 x CCID50 (cell culture infective dose 50%) per ml of cell suspension. Infected cell suspension (100 μl; 3 x 10^5 cells/ml) was transferred to a 96-well microplate, mixed with 100 μl of the appropriate dilutions of compounds, and further incubated at 37°C. After 4 days, giant cell formation was recorded microscopically and the number of giant cells was estimated microscopically as percentage of the number of giant cells present in the non-treated virus-infected cell cultures.

HIV-2(ROD) = assay: Inhibition of HIV-2(ROD)-induced giant cell formation in CEM cell cultures; format: cell-based
Protocol: as §1

CEM cells = assay: Cytostatic activity assay, CEM cells; format: cell-based; settings: Homo sapiens, CCRF-CEM, 72 h; inhibition of cell proliferation by 50%, three-day drug-exposed; mean ± SD
Protocol: (§2) The cytostatic activity assay using transformed cell lines was also performed in 96-well microtiter plates. 5–7.5 x 10^4 human CD4^+ T-lymphocyte CEM or human cervix carcinoma HeLa cells and a given amount of the test compounds were added to each well. The cells were allowed to proliferate for 72 h (96 h for HeLa) at 37°C in a humidified CO2-controlled atmosphere. At the end of the incubation period, the cells were counted in a Coulter counter (type ZM, Coulter Electronics, Analis, Ghent, Belgium).

HeLa cells = assay: Cytostatic activity assay, HeLa cells; format: cell-based; settings: Homo sapiens, 72 h, read-out: IC50 HeLa
Protocol: as §2

HIV-1(IIIB) [2] = assay: Antiviral activity in PHA-stimulated PBMCs (p24 ELISA), HIV-1(IIIB); format: cell-based; settings: Human immunodeficiency virus 1, IIIB, PBMC, read-out: EC50 HIV-1 (IIIB)
Protocol: (§3) To test the antiviral activity in fresh, PHA-stimulated PBMCs, an experiment was performed as previously described. Briefly, the cells were preincubated with HIV-1(IIIB), HIV-1(BaL) or HIV-1(HE) for 1 h at 37°C, using a viral load of 1000 x CCID50 per ml. Then, cell suspensions containing virus and 2 x 10^5 PBMCs were seeded in a 96-well microtiter plate and a serial dilution of compound was added, in a total volume of 200 μl. After 4 days, the cells were passaged and fresh culture medium, containing IL-2 and compound, was added. Three days later, cellular supernatants were harvested and viral replication in the presence of the compounds was quantified using a p24 enzyme-linked immunosorbent assay (ELISA) (Perkin Elmer, Brussels, Belgium). The half maximal effective concentration (EC50) was defined as the compound concentration that is required to block viral replication by 50%.

HIV-1(BaL) = assay: Antiviral activity in PHA-stimulated PBMCs (p24 ELISA), HIV-1(BaL); format: cell-based; settings: Human immunodeficiency virus 1, BAL, PBMC, read-out: EC50 HIV-1 (BAL)
Protocol: as §3

HIV-1(HE) = assay: Antiviral activity in PHA-stimulated PBMCs (p24 ELISA), HIV-1(HE); format: cell-based; settings: Human immunodeficiency virus 1, PBMC, read-out: EC50 HIV-1 (HE)
Protocol: as §3

PHA-stimulated PBMCs = assay: Toxicity in PHA-stimulated PBMCs (trypan blue cell counting); format: cell-based, human; settings: Homo sapiens, PBMC, 168 h, read-out: IC50 PBMC
Protocol: A similar experiment was performed to study the toxicity of the compounds in fresh, PHA-stimulated, PBMCs. Mock-infected PBMCs (2 x 10^5 cells) were exposed to a serial dilution of compound, in a total volume of 200 μl. Cells were passaged after 4 days. Cell survival and proliferation was assessed at day 7 using trypan blue-based cell counting with the Countess Automated Cell Counter (Invitrogen, Ghent, Belgium). The IC50 was defined as the concentration of the compound that inhibited cell proliferation by 50%.

[3] = tested on: HuT-78/HIV-1 and Sup-T1 cells; assay: cells; format: cell-based
Protocol: Persistently infected HuT-78/HIV-1 cells were thoroughly washed to eliminate free virions. Next, 1 x 10^5 HuT-78/HIV-1 cells were co-cultivated with 1 x 10^5 Sup-T1 cells in 96-well plates (200 μl/well) during 20 h at 37°C, in the presence or absence of a serial dilution of compound. Afterwards, the formation of syncytia was evaluated microscopically. The EC50 was defined as the compound concentration required to suppress syncytia formation by 50%.

HIV-1 [4] = assay: Infectivity (TZM-bl) of virus particles produced by ACH-2 cells in presence of compound; format: cell-based; settings: compound added at 1/100 of concentration in viral growth culture
Protocol: To measure the infectivity of particles produced in the presence of the compounds, washed persistently HIV-1-infected ACH-2 cells (1 x 10^6 cells/ml) were cultured with 100 nM PMA in the presence of the indicated concentration of compounds. After 3 days, the p24 content of the clarified supernatant (see virus expression) was measured. The cell supernatant was then used for an infectivity test (see infectivity assay) without the further addition of any compound to the cultures. The final dilution of the ACH-2 supernatant in the infectivity test was 1:100. A control experiment was performed, in which virus particles produced without the addition of compound, were used for the infectivity test. Additionally, the same amount of compound that could have been carried over with the virus containing supernatant in the original experiment was added to the infectivity test (final concentration: 1/100 of the indicated amount in the viral growth culture).

HIV-1 protease [5] = molecular target: T1, HIV-1 protease (Human immunodeficiency virus type 1 group M subtype B, UniProt P04585); assay: HIV-1 protease inhibition (SensoLyte 520 kit); format: biochemical; settings: 25 μM
T1 construct: the virus-encoded protease; endogenous in cells; host or cells: persistently infected HuT-78/HIV-1(IIIB) cells and released virus particles
Protocol: The ability of the compounds to inhibit the activity of recombinant HIV-1 protease was determined by a SensoLyte 520 HIV-1 protease assay kit (AnaSpec Inc., Fremont, CA) according to the manufacturer’s instructions. Compounds (10 μl of a 250 μM, solution, giving a final concentration of 25 μM in the reaction mixture) and 40 μl HIV-1 protease (100 ng/well; AnaSpec Inc.) were added to a dark-bottom 96-well plate. Pepstatin A was included as an inhibitor control. The plate as well as the HIV-1 protease substrate solution (provided) were incubated for 15 minutes at 37°C and 50 μl protease substrate was added to all wells. The fluorescence was measured at Ex/Em = 490 nm/520 nm with a Varioskan Flash (Thermo Electron Corporation, Schwerte, Germany).

HIV-1 protease [6] = molecular target: T1, HIV-1 protease; assay: p55 cleavage in virus particles from HuT-78/HIV-1 cells (Western blot); format: cell-based; settings: 43 h, AZT 3.7 μM, ritonavir 2.8 μM, TE-10 1 and 20 μM
Protocol: In order to confirm the inhibitory effect of TE-10, an additional assay was performed to study the inhibition of the HIV-1 protease by TE-10. Therefore, 2 x 10^5 persistently infected HuT-78/HIV-1 cells were washed thoroughly and seeded in 48-well plates, in the presence or absence of compound. As reference compounds, the RT inhibitor AZT (3.7 μM) and the protease inhibitor ritonavir (2.8 μM) were used, as negative and positive controls, respectively. TE-10 was used at 1 μM and 20 μM. After 43 h of incubation at 37°C, virus-containing cell culture supernatants were harvested and the cells were removed by centrifugation (10 min at ± 900 x g). Then, virus was precipitated from the cell supernatant by centrifugation at ± 3.5 x 10^4 x g for at least 2 h. The viruses were resuspended in PBS and lysed with Triton-X100 (Sigma-Aldrich, Diegem, Belgium). These viral lysates were then subjected to SDS-PAGE and subsequent Western blotting to detect the presence of p24 and its precursor p55, using an anti-p24 antibody (AB9044; final concentration 2.4 μg/ml).

[7] = previously known structural properties ref 20-22; cited from earlier work
HIV-1 [8] = assay: Infectivity assay in TZM-bl cells (luciferase); settings: 40 h
Protocol: TZM-bl cells (1 x 10^5) were infected with diluted virus suspension (see virus expression) in a total volume of 0.2 ml DMEM medium in the presence of the compounds or an inhibitor control (nevirapine). After 40 h at 37°C, the luminescence was assayed and quantified in a Luminoskan Ascent (Thermo Labsystems, Schwerte, Germany) for luciferase activity using the OneGlo luciferase assay system (Promega, Nacka, Sweden).

TrxR1 = molecular target: T2, TrxR1 (Homo sapiens, UniProt Q16881); assay: Inhibition of TrxR1-dependent reduction of HIV-1 gp120 (ELISA); format: biochemical; settings: 100 μM compound; 1 μM Trx1 + 100 nM TrxR1 + 240 μM NADPH; control without compound 38–54%
T2 construct: purchased IMCO Corporation (Stockholm, Sweden) or Sino Biological Inc (Zoersel, Belgium)
T2 sequence (Q16881 1-499 isoform Q16881-5): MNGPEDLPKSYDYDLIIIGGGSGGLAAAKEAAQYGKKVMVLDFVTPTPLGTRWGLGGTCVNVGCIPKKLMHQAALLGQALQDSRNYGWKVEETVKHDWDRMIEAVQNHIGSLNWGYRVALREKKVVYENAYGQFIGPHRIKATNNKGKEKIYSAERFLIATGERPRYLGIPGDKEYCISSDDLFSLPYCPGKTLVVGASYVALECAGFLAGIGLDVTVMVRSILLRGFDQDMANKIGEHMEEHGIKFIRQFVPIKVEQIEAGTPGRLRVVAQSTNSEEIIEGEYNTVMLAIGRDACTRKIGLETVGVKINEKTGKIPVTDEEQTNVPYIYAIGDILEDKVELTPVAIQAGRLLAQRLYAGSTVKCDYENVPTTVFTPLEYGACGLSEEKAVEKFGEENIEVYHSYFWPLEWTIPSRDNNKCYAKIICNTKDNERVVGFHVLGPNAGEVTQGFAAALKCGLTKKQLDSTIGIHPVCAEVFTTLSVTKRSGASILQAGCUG
Protocol: After coating 96-well Maxi-Sorp ELISA plates (Nunc Inc, Roskilde, Denmark) with 100 μl gp120 in PBS (2 μg/ml), these were blocked with PBST (phosphate buffered saline, pH 7.4 with 0.05% Tween 20) as described before). The experiment was performed with two different set-ups for each compound, but each reaction mixture contained 1 μM Trx1 + 100 nM TrxR1 + 240 μM NADPH + 100 μM of the compounds, with auranofin as an inhibition control. In the first set-up (TrxR1 + Trx1), the reaction mixtures were pre-incubated for 15 min at 37°C in the absence of the compounds, which were added after the preincubation period. In the second set-up (TrxR1 + compounds), the reaction mixtures were exposed to the different compounds, but in the absence of Trx1, which was added after the 15 min pre-incubation period. The reaction mixtures were then added to the gp120-coated wells to allow the reduction of gp120, incubated for 15 min at 37°C and then washed four times with PBST to remove any unbound material. Subsequently, the wells were incubated with 2 μM biotin-maleimide for 30 min at room temperature, then washed and incubated with steptavidine-ALP (diluted 1:1000) at room temperature. […] The absorbance at 405 nm was measured using a microplate reader (Wallac Perkin-Elmer).

HIV = tested on: HIV; design: method as in PMID 8895167; settings: cited from earlier work
[9] = molecular target: T3, HIV-1 reverse transcriptase (Human immunodeficiency virus type 1 group M subtype B, UniProt P04585); assay: Reverse transcriptase inhibition (Lenti RT Activity kit); format: biochemical; settings: 25 μM; poly-A template, overnight
Protocol: The ability of the compounds to inhibit the activity of viral RT was determined by a Lenti RT Activity kit (Cavidi, Uppsala, Sweden) according to the manufacturer’s instructions. A poly-A-coated plate was incubated with the reaction bufferfor up to 1 h at 33°C. Then, a mixture of the virus preparation (see virus expression) and 25 μM of the test compounds or an inhibitor control (nevirapin) were added to the RT assay mixture and incubated overnight at 33°C. The plate was washed, exposed to the provided tracer for 90 min at 33°C and washed again, before the provided substrate was added to quantify the RT reaction that took place. The plate was incubated in the dark for 30 min and subsequently read at 405 nm in a Labsystem Multiskan RC (Artisan Technology Group, Champaign, IL, USA).

[10] = molecular target: T3, HIV-1 reverse transcriptase; design: method as in PMID 1376314; settings: template poly rC.dG versus other templates ref 38; cited from earlier work

COC(=O)CCN(CCC(=O)OC)c1ccc([Te]c2ccc(N(CCC(=O)OC)CCC(=O)OC)cc2)cc1 [TE-10, bis[4-(N,N-di(2-carbomethoxyethyl)amino)phenyl]telluride]
Ratio IC50/EC50 HIV-1 (CEM) (HIV-1(IIIB) [1]; CEM cells): 16 | EC50 (HIV-1(IIIB) [1]; read-out: EC50 (range given)): 15 to 16 µM | EC50 (HIV-1(IIIB) [1]; read-out: EC50 HIV-1 (IIIB)): 16 ± 7.9 µM | Ratio IC50/EC50 HIV-2 (CEM) (HIV-2(ROD); CEM cells): 17 | EC50 (HIV-2(ROD); Human immunodeficiency virus 2, CCRF-CEM, read-out: EC50 HIV-2 (ROD)): 15 ± 2.6 µM | IC50 (CEM cells): ≥ 250 µM | IC50 (HeLa cells): 128 ± 29 µM | EC50 (HIV-1(IIIB) [2]): 12 ± 4 µM | EC50 (HIV-1(BaL)): 12 ± 10 µM | EC50 (HIV-1(HE)): 6.6 ± 2.1 µM | IC50 (PHA-stimulated PBMCs): 19 ± 2 µM | IC50 ([3]; Human immunodeficiency virus 1, SUP-T1, 24 h, read-out: IC50 inhibition of syncytia formation): > 250 µM | carry-over control: residual compound as cause of decreased infectivity (HIV-1 [4]): could not be explained by the presence of residual compound | decrease of protease activity (HIV-1 protease [5]): 50% | p55 cleavage in viral particles (Western blot) (HIV-1 protease [6]): allow efficient p55 cleavage | Hydrophobicity [7]: Hydrophobic | fold higher concentration for similar inhibition of luminescence signal than the other organotellurium compounds (HIV-1 [8]; TZM-bl): approximately 10 fold

CC(=O)OC[C@H]1O[C@@H]([S-])[C@H](OC(C)=O)[C@@H](OC(C)=O)[C@@H]1OC(C)=O.CCP(CC)CC.[Au+] [auranofin]
reduction of gp120 disulfide bonds, % of DTT (set at 100%) (TrxR1): 6–10% | inhibition of syncytium formation ([3]; cocultures of HuT-78/HIV-1(IIIB) and Sup-T1 cells, data not shown): failed to inhibit syncytium formation | CD4 counts (HIV; HIV-infected patients ref 9): increased the CD4 counts | plasma HIV-RNA counts (HIV; HIV-infected patients treated for rheumatoid arthritis ref 9): lowered

Cc1ccnc2c1NC(=O)c1cccnc1N2C1CC1 [nevirapine]
inhibition of RT polymerase activity [9]: pronounced, however not complete inhibitory activity | better inhibition efficacy with poly rC.dG than other templates [10]: ~ 10 fold | inhibition of luminescence signal (HIV infection of TZM-bl) (HIV-1 [8]; 10 μM): full inhibition
